From ChEMBL document CHEMBL1201862, “PubChem BioAssay data set” (2004)
Activity calls are given as the source filed them.

Experiments:
[1] = molecular target: Mu-type opioid receptor (Homo sapiens, UniProt P35372); type: functional, cell-based;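 note: U2OS cells with beta-arrestin recruitment to OPRM1 by beta-gal complementation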
[2] = molecular target: 5-hydroxytryptamine receptor 2A (Mus musculus, UniProt P35363); type: functional, cell-based;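 note: CHO-K1 cells with tagged receptor and beta-arrestin; agonist potency measured as compound-induced activation of the receptor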
[3] = molecular target: T1, Long-chain-fatty-acid--AMP ligase FadD28 (Mycobacterium tuberculosis, UniProt P9WQ59); test: Fluorescence polarization aasay to screen for inhibitors that compete for the binding of FadD28 to a bisubstrate Measured in Biochemical System Using Plate Reader - 2147-01_Inhibitor_Dose_CherryPick_Activity.; type: functional, Mycobacterium tuberculosis H37Rv
T1 sequence (P9WQ59 whole entry): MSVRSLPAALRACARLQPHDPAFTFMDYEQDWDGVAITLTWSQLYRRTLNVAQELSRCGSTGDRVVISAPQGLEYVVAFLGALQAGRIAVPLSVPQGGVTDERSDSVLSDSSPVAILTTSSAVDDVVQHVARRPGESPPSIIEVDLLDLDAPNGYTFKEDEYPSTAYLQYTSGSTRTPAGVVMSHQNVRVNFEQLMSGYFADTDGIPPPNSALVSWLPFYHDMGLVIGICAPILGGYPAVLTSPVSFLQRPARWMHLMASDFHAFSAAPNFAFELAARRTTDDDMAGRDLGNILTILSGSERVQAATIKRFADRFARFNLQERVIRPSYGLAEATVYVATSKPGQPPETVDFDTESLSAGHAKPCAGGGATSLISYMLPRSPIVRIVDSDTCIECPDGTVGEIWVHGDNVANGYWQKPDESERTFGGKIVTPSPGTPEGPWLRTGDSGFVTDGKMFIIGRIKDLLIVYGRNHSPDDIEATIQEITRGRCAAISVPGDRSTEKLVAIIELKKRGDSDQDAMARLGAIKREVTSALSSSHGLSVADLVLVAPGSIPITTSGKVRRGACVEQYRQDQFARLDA

[4] = cells; type: functional, cell-based
[5] = molecular target: T2, Nuclear receptor subfamily 0 group B member 1 (Homo sapiens, UniProt P51843); type: functional, cell-based;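 note: HEK293T cells transfected with SF-1 and DAX-1 plus StAR promoter luciferase reporter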
T2 sequence (P51843 whole entry): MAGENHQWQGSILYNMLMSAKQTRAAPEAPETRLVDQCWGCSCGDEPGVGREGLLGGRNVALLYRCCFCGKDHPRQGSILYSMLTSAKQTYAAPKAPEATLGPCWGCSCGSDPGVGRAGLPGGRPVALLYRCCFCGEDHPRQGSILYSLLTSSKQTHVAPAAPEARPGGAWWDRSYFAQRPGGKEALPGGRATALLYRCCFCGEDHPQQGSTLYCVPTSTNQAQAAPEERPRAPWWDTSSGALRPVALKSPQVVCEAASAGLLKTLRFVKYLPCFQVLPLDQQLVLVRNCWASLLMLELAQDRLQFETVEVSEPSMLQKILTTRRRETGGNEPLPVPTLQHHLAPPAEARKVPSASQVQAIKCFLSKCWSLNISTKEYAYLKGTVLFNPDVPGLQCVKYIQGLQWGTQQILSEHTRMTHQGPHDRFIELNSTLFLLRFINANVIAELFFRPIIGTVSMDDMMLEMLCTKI

[6] = molecular target: T3, RNA-binding protein pos-1 (Caenorhabditis elegans, UniProt G5EF15); test: inhibitors of POS-1/mex-3 RNA binding, dose response, biochemical, fluorescence polarization (AID 1964);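 note: purified POS-1 fused to maltose binding protein made in E. coli; potency of compounds blocking POS-1 binding to fluorescent RNA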
T3 sequence (G5EF15 whole entry): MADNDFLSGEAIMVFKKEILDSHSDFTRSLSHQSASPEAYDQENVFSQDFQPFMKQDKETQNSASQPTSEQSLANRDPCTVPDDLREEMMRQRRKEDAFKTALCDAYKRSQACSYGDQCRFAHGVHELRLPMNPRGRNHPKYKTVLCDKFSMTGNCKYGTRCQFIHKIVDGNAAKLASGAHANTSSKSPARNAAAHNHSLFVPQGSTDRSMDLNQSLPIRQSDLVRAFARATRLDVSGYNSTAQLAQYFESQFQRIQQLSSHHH

[7] = molecular target: T4, Zinc finger protein mex-5 (Caenorhabditis elegans, UniProt Q9XUB2); test: MEX-5/TCR-2 RNA interaction inhibitors, dose response, biochemical, C. elegans, fluorescence polarization (AID 1960)
T4 sequence (Q9XUB2 whole entry): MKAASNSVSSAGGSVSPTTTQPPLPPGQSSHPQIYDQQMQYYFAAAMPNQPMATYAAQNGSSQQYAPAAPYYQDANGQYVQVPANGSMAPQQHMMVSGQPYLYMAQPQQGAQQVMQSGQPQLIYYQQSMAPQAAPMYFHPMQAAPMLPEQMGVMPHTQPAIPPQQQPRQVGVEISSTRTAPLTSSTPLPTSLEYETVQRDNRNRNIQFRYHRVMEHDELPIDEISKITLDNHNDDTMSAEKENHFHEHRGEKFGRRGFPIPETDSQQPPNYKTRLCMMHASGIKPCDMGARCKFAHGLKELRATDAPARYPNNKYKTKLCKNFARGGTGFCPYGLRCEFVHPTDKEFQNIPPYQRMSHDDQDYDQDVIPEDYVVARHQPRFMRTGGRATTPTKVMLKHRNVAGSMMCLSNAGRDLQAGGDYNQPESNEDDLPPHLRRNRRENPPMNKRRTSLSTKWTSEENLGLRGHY

[8] = molecular target: Large T antigen (Simian virus 40, UniProt P03070); type: functional, Betapolyomavirus macacae;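 note: Confirmatory-stage PubChem screen for compounds that inhibit SV40 T antigen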
[9] = molecular target: Induced myeloid leukemia cell differentiation protein Mcl-1 (Homo sapiens, UniProt Q07820); type: functional
[10] = molecular target: DNA (cytosine-5)-methyltransferase 1 (Homo sapiens, UniProt P26358); test: DNMT1 methyltransferase inhibitors, confirmation, biochemical, fluorescent molecular beacon (AID 602386); type: functional
[11] = molecular target: T5, Small ubiquitin-related modifier 1 (Homo sapiens, UniProt P63165); test: inhibitors of SUMO1 peptide binding, dose response, biochemical, fluorescence polarization, uHTS hits (AID 624382); type: functional; details: read-out: IC50_Mean
[12] = molecular target: T5, Small ubiquitin-related modifier 1; test: inhibitors of SUMO1 partner interactions, dose response, biochemical, FRET (AID 624383); type: functional; details: read-out: IC50_Mean
[13] = molecular target: T6, Histone-lysine N-methyltransferase NSD2 (Homo sapiens, UniProt O96028); type: biochemical
T6 sequence (O96028 whole entry): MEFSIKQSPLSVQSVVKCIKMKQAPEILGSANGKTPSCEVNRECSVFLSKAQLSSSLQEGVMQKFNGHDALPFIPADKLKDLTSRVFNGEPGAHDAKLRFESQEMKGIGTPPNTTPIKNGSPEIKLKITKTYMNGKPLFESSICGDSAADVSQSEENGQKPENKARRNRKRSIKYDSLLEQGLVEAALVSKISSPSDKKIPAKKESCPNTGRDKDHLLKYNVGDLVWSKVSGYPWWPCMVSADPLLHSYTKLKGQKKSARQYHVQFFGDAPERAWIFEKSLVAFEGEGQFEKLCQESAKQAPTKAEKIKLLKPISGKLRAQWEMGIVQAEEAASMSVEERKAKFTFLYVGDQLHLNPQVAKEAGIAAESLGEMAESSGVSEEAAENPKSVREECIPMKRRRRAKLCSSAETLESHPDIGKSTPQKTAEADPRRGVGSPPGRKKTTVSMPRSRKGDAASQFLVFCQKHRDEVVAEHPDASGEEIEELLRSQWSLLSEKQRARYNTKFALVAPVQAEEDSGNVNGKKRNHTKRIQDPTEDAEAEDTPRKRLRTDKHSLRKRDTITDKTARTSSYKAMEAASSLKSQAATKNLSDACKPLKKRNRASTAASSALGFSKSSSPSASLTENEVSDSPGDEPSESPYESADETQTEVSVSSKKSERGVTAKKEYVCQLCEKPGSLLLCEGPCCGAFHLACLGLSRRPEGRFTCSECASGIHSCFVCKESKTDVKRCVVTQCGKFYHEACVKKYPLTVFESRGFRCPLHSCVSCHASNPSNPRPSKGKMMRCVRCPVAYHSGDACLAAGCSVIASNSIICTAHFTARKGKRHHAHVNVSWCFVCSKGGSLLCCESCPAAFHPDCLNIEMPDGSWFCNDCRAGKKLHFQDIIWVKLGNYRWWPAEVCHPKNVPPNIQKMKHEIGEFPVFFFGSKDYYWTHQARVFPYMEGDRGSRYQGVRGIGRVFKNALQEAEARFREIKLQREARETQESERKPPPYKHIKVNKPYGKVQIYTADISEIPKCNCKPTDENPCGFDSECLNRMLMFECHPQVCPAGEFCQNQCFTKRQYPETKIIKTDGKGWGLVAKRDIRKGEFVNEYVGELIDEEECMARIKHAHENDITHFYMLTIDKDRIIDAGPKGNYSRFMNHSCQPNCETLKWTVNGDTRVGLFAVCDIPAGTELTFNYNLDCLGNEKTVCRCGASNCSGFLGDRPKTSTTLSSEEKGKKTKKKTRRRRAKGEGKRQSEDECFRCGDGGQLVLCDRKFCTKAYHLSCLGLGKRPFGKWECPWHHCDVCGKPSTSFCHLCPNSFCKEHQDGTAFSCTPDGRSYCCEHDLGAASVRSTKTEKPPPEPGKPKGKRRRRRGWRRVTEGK

[14] = molecular target: Luciferin 4-monooxygenase (Photinus pyralis, UniProt P08659); test: Counter Screen for Luciferase-based Assay Positives. [Related pubchem assays: 620, 618, 411 ]
[15] = Luminescence Cell-Based Dose Response HTS to Identify Inhibitors of 5'UTR Stem-Loop Driven Prion Protein mRNA Translation in H4 Neuroglioblastoma Cells. [Related pubchem assays: 1827 (Project Summary), 1813 (Primary HTS)]; type: functional
[16] = tested on: HT-1080; test: cytotoxicity in HT1080 fibrosarcoma cells, cell-based, fluorescence readout (AID 620); type: functional; details: Homo sapiens
[17] = molecular target: T7, Protein skinhead-1 (Caenorhabditis elegans, UniProt P34707); type: functional
T7 sequence (P34707 whole entry): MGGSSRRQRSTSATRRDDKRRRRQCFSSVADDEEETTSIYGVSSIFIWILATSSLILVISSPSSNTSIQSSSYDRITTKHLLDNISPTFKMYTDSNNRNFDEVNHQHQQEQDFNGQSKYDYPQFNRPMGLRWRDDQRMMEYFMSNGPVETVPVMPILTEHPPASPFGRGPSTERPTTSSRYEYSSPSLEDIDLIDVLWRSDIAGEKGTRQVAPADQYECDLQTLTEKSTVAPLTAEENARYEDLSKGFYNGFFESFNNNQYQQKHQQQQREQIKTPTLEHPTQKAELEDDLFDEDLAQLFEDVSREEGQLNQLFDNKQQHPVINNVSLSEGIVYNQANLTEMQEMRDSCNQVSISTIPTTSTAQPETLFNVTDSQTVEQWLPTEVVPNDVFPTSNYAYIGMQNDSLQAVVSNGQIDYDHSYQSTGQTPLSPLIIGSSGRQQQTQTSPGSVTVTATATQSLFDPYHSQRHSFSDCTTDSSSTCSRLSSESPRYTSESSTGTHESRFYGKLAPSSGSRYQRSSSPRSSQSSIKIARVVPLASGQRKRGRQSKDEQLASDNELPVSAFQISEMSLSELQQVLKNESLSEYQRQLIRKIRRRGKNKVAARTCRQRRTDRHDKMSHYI

[18] = inhibitors of HIV Env-driven cell fusion, dose response, cherry-pick (AID 652057); type: functional, cell-based
[19] = CEM21 lymphoblast cell cytotoxicity, dose response, cytotoxicity control for viral fusion inhibitor project, CellTiter-Glo luminescence, cherry-picked (AID 652042); type: functional, cell-based;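 note: potency for signal decrease meaning cytotoxicity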
[20] = inhibitors of clade B AD8 Env fusion, dose response, cell-based, cherry-pick (AID 652062); type: functional;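 note: luciferase signal from cell-cell fusion driven by HIV-1 clade B AD8 Env; potency is for inhibitors of fusion seen as a drop in luminescence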
[21] = ZM109 Env clade C HIV-1 fusion inhibitors, dose response, HeLa effector, CEM target cells, luciferase, cherry-pick (AID 652058); type: functional, cell-based

Sequence of 5-hydroxytryptamine receptor 2A (P35363 whole entry): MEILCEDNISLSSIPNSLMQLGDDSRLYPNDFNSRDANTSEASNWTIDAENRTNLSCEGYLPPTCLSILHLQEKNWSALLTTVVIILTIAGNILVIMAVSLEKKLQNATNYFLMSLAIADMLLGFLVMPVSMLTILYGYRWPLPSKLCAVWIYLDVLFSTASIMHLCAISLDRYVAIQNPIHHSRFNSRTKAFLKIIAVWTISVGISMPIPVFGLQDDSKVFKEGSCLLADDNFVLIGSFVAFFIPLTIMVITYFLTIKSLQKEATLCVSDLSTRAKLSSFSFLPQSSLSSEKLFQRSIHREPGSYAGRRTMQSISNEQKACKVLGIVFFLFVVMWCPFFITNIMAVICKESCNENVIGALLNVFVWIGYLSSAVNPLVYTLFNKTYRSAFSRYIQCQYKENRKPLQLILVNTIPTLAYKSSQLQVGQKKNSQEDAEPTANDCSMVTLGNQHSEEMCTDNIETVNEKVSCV
Sequence of Mu-type opioid receptor (P35372 whole entry): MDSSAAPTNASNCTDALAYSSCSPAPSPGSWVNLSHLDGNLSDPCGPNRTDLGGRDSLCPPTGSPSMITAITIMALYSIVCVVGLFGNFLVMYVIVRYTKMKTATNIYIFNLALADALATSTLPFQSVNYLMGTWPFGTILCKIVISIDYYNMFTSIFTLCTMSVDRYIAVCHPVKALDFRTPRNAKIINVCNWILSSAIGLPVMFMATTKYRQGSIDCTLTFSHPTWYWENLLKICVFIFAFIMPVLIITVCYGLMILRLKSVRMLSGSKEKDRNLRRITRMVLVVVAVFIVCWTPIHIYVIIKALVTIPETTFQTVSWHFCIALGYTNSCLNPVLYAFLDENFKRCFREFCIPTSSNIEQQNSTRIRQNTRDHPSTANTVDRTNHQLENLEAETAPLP
T5 sequence (P63165 whole entry): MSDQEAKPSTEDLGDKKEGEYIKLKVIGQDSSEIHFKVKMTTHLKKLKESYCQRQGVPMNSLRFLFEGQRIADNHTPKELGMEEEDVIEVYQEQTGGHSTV
Sequence of DNA (cytosine-5)-methyltransferase 1 (P26358 whole entry): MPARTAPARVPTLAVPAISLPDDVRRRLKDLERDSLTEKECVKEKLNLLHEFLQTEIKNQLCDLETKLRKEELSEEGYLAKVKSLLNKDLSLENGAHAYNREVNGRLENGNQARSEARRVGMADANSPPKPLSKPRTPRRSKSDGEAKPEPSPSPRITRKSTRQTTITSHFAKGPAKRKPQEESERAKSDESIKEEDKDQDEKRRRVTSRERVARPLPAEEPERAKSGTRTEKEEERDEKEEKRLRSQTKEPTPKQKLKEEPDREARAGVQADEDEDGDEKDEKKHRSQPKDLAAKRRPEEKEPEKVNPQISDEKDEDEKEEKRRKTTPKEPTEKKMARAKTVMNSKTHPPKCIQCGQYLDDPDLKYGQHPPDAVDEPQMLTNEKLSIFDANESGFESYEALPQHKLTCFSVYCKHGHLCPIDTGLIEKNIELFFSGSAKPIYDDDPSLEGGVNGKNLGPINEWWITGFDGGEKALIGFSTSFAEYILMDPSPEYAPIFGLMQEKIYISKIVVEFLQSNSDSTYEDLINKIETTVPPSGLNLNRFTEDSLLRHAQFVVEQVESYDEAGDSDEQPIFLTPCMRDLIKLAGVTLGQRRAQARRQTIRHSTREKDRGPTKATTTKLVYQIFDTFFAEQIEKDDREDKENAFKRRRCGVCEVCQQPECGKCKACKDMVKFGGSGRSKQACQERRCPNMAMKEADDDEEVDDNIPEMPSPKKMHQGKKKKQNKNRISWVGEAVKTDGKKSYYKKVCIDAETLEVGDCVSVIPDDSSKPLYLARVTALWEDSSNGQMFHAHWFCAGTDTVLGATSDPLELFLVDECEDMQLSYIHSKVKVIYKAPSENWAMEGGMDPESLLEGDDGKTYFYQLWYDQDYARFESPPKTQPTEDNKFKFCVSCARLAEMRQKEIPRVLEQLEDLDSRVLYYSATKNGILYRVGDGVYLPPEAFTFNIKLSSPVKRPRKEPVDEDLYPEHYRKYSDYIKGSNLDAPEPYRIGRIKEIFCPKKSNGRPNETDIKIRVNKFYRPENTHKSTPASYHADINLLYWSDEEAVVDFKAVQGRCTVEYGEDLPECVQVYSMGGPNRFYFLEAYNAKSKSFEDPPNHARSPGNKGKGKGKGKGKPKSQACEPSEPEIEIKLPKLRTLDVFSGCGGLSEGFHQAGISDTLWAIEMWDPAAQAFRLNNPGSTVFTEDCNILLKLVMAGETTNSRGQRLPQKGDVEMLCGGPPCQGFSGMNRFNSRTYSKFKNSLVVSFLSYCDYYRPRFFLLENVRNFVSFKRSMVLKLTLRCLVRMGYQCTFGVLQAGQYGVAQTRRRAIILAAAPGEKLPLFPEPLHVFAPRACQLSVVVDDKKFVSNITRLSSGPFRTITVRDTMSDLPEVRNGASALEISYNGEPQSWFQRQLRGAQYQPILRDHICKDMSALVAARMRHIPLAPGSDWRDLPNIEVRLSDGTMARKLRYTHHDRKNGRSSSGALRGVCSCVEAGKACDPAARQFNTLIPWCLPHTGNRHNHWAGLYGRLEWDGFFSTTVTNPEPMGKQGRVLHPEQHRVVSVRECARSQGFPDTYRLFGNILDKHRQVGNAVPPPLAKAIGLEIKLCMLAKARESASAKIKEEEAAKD
Sequence of Induced myeloid leukemia cell differentiation protein Mcl-1 (Q07820 whole entry): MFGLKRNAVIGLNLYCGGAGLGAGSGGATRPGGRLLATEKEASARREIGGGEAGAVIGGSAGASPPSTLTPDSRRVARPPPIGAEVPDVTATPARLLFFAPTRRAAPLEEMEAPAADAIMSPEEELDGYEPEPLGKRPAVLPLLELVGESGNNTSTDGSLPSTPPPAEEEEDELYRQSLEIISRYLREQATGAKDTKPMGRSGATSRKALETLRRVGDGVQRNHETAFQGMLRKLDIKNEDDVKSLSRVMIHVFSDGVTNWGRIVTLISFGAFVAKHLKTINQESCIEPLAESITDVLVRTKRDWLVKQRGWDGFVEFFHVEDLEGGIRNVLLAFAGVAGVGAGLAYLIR
Sequence of Luciferin 4-monooxygenase (P08659 whole entry): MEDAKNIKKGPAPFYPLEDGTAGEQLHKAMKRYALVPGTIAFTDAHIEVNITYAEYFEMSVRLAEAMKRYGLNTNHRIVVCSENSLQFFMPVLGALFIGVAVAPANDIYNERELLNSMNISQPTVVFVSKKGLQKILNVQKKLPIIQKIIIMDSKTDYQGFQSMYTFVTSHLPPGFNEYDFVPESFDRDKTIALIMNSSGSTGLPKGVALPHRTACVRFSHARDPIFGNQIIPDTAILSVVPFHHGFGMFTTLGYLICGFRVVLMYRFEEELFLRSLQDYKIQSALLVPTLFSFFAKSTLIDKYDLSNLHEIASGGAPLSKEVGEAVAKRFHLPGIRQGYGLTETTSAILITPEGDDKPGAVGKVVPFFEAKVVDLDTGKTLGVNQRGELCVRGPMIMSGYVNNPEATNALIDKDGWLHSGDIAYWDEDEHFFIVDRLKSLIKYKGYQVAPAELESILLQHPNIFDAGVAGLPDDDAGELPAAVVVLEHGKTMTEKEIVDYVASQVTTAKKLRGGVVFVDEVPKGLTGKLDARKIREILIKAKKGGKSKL
Sequence of Large T antigen (P03070 whole entry): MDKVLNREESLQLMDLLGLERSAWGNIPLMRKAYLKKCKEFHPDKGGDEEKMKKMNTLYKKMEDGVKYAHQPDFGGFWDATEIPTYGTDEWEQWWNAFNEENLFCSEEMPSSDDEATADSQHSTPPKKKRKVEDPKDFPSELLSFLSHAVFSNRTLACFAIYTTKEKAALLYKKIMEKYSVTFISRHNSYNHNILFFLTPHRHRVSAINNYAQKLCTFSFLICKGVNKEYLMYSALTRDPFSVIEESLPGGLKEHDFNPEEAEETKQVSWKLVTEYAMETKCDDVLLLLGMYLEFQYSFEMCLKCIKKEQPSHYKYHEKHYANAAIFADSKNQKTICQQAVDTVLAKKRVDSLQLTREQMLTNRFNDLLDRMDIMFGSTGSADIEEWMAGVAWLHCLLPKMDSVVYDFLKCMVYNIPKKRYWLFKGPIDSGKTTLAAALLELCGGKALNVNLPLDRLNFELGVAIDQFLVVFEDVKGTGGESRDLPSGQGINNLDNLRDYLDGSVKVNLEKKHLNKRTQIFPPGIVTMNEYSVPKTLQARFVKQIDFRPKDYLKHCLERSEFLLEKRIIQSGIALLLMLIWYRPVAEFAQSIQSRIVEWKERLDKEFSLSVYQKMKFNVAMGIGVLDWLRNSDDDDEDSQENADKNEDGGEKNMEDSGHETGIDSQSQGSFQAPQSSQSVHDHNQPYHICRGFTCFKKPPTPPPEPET

CCOC(=O)N1CCN(Cc2ccc(OCC(O)CN3CCCCC3)cc2)CC1 (centres undefined)
EC50 [1]: 92.5 µM (inactive) | EC50 [2]: 2.22 µM (active)

c1cnc(N2CCN(Cc3ccc4c(c3)OCO4)CC2)nc1
EC50 [1]: 92.5 µM (inactive) | EC50 [2]: 0.00986 µM (active)

CCc1cccc2c(C(=O)CN3C(=O)NC4(CCc5ccccc54)C3=O)c[nH]c12 (centres undefined)
AC50 [3]: 29.2 µM (active) | IC50 [4]: > 67.5 µM (inactive) | IC50 [5]: > 67.5 µM (inactive)

O=C(COC(=O)c1ccc(O)cc1O)c1ccc(Cl)cc1
IC50 [4]: > 67.5 µM (inactive) | IC50 [5]: > 67.5 µM (inactive)

O=C(O)c1ccc(-n2cccc2/C=C2/NC(=O)N(c3ccccc3)C2=O)cc1
EC50 [6]: > 300 µM (not active) | EC50 [7]: 71.1 µM (active) | IC50 [8]: > 100 µM (active) | IC50 [9]: 3.51 µM (active) | IC50 [10]: 3.83 µM (active) | IC50 [11]: > 66.6 µM (inactive) | IC50 [12]: 9.62 µM (active) | AC50 [13]: 5.87 µM (active)

O=C(/C=C\Nc1ccccn1)c1ccccc1
EC50 [14]: < 0.2 µM (active) | EC50 [15]: 10.7 µM (inconclusive) | EC50 [16]: > 50 µM (not active) | IC50 [17]: 15.1 µM (active) | IC50 [4]: > 67.5 µM (inactive) | IC50 [5]: > 67.5 µM (inactive)

CC[C@@H](C)[C@H](C(CC(=O)N1CCCC1[C@@H](OC)[C@H](C)C(=O)N[C@H](Cc1ccccc1)c1nccs1)OC)N(C)C(=O)[C@H](NC(=O)[C@@H](C(C)C)N(C)C)C(C)C (some centres undefined)
IC50 [4]: > 67.5 µM (inactive) | IC50 [5]: > 67.5 µM (inactive)

CSCCC(=O)N1CC[C@@H](N2CCN(c3ccccc3F)CC2)[C@H](O)C1
EC50 [1]: 92.5 µM (inactive) | EC50 [2]: 41.7 µM (inactive)

COc1cccc(CNc2nc(NCc3ccccc3OC)nc3ccsc23)c1
IC50 [17]: > 100 µM (inactive) | AC50 [18]: 31.9 µM (active) | AC50 [19]: 68.5 µM (active) | AC50 [20]: 16.8 µM (active)

O=C(Nc1ccc(Cl)c(Cl)c1)N[C@H]1CC[C@H](CCn2cc(C3CCCCC3)nn2)O[C@@H]1CO
AC50 [18]: 18.9 µM (active) | AC50 [19]: 61 µM (active) | AC50 [21]: 16.8 µM (active) | AC50 [20]: 43.9 µM (active)

CCC1CS/C(=N\c2ccc(C)cc2)N1C(=O)CN1C(=O)NC2(CCCC2)C1=O (centres undefined)
IC50 [4]: > 67.6 µM (inactive) | IC50 [5]: > 67.6 µM (inactive)

CC(=O)NCC1(c2ccccc2)CCN(CC2COc3ccccc3O2)CC1 (centres undefined) [ACOXATRINE]
EC50 [1]: 92.6 µM (inactive) | EC50 [2]: 76.2 µM (inactive)
